Structures are written as SMILES. Positions of bridges follow the written chain, without caps; N, C: chain ends. Non-standard residues stand in square brackets, D forms with d. Residues, ends and D or L forms follow the SMILES beside them. *: point of attachment. 5FAM = O=C1OC2(c3ccc(O)cc3Oc3cc(O)ccc32)c2ccc(C(=O)*)cc21; βAla = NCCC(=O)O

In one experiment the test system is TmrAB. In words: Competition of CP^F binding by substrate peptides (fluorescence anisotropy). Further details: species or system Thermus thermophilus. The source says: To elucidate the mechanistic basis for the inhibition of ATP hydrolysis and substrate transport, we investigated the effects of CPs on substrate binding. In the first approach, fluorescent CP^Fs were used as reporters in fluorescence polarization. […] In addition, we examined the impact of CP^Bs on ATP binding to TmrAB by scintillation proximity assays (SPA) (Figure 4C). […] Taken together, CPs are high-affinity allosteric inhibitors of TmrAB that leave ATP binding and substrate interaction largely unaffected, while impairing ATP hydrolysis and substrate translocation across the membrane.
Figure 4. […] (A) CP^Fs binding TmrAB is not affected by substrate peptide binding. […] For competition, C4^ATTO655 peptide (2 µM) or R9LQK peptide (200 µM) were added. (B) Binding of C4F peptide is not affected by CP^Bs. C4F peptides (50 nM) were mixed with TmrAB (4 µM), and fluorescence anisotropy was monitored as described in (A). For competition, C4^ATTO655 (10 µM) or CP^Bs (6 µM) were added. […] TmrAB (0.2 µM) were immobilized on SPA beads and incubated with ATP (3 μM, traced with ^3H-ATP) in the presence and absence of CP^Bs (1 µM each) for 30 min on ice. ATP binding was monitored by SPA. Background values were determined after releasing TmrAB complexes from the beads by adding imidazole (200 mM). The background signal in the absence of CP^Bs was set to 0 cpm. […] As this is an equilibrium experiment, this can be rationalized by the fact that CP13 stabilizes the ATP-bound OF conformer. Figure 4—source data 1. Source data for Figure 4.
To determine equilibrium binding constants, CP^Fs (50 nM) were incubated with increasing concentrations of TmrAB-containing or empty liposomes. To probe the conformational selectivity, CP^Fs (50 nM) were mixed with detergent-solubilized IF TmrAB or OF TmrA^EQB. Before, OF TmrA^EQB was nucleotide-trapped by incubation with ATP (1 mM) and MgCl2 (3 mM) in the absence of CP^Fs for 5 min at 45°C. […] For peptide competition studies, RRYC^fluoresceinKSTEL (C4F, 50 nM) were incubated with detergent-solubilized TmrAB (4 µM), CP^Bs (6 µM), or C4^ATTO655 (10 µM). […] Fluorescence anisotropy was analyzed at λex/em of 485/520 nm using a microplate reader (CLARIOstar, BMG LABTECH). Fluorescence anisotropy was calculated using:(1) r=I||−I⊥/I||+2⋅I⊥ with I||: parallel intensity and I⊥: perpendicular intensity. Binding of CP^Fs were fitted by a one-site binding model (Langmuir 1:1) using:(2) Y=Bmax∙[L]/KD+[L] with Y: binding, Bmax: maximal binding, KD: equilibrium dissociation constant, and [L]: ligand concentration. Data represent mean ± SD from three experiments.
A general note: Polarisation of emitted light reports the rotation of a fluorescent probe.

Experiment [1] can be described thus: Fluorescence anisotropy with empty liposomes (specificity control). In kind it is binding. The settings on record: CP^F 50 nM. The protocol:
In order to analyze the binding affinity and specificity of CPs to TmrAB, we established a fluorescence polarization assay. Fluorescein-labeled CP^Fs were incubated with increasing concentrations of TmrAB reconstituted in liposomes at a protein-to-lipid ratio of 1:20 (w/w). […] To address whether the CPs recognize a linear or non-linear epitope, we examined the binding of CP^Fs after disrupting the quaternary and tertiary structure of TmrAB complexes by adding anionic detergent SDS.
Figure 2. […] (A, B) Equilibrium binding analysis. Fluorescence anisotropy of CP^Fs (50 nM) was determined at λex/em = 485/520 nm with increasing concentrations of TmrAB which was reconstituted in liposomes. TmrAB concentrations were calculated based on the random (50/50%) orientation in proteoliposomes ([Stefan et al., 2020]). As a control, equal amounts of empty liposomes were added to CP^Fs (dashed lines, open symbols). The difference in fluorescence polarization was normalized to free (0%) and 100% bound CP^F. Mean values ± SD (n = 3) are shown, and data were analyzed by a one-site binding model. […] Streptavidin beads loaded with CP14^B (1 µM) were mixed with purified TmrAB (60 nM) for 1 hr at 4°C. Beads were washed and bound TmrAB was eluted by adding SDS loading buffer for 10 min at 95°C. Amounts of TmrA in input (I), flow-through (FT), wash fraction (W), and eluate (E) were analyzed by SDS-PAGE and immunoblotting (α-His). Beads without CP^B served as negative control (right panel). (D) One-step purification of TmrAB via immobilized CP14^B matrices. Streptavidin-agarose beads were loaded with CP14^B (1 µM) and mixed with DDM-solubilized membranes of E. coli containing TmrAB as described in (C). Bound TmrAB was eluted in SDS loading buffer and analyzed by SDS-PAGE (silver stain). (E) Native mass spectrometry. TmrAB (4 µM) was buffer exchanged to ESI buffer and incubated with a 2-fold molar excess of CP14^F for 10 min on ice. Protein complexes were investigated by ESI-TOF-mass spectrometry. […] Figure 2—source data 1. Source data for Figure 2. Figure 2—figure supplement 1. […] (A) CP^Bs-mediated isolation of solubilized TmrAB. Streptavidin matrices were loaded with CP^Bs (1 µM) and incubated with purified TmrAB (60 nM) for 1 hr at 4°C. Beads without CP^Bs served as control (see Figure 2C). Bound TmrAB complexes were eluted by the addition of SDS loading buffer for 10 min at 95°C. TmrAB in input (I), flow-through (FT), washing fraction (W), and eluate (E) was analyzed by SDS-PAGE and immunoblotting (α-His). […] Bound TmrAB complexes were eluted in SDS loading buffer and analyzed by SDS-PAGE (silver stain). […] CP^F-TmrAB complexes were analyzed by gel filtration. […] Fluorescence anisotropy was determined at λex/em = 485/520 nm. […]

[2] abbreviates: CP^F 50 nM + TmrAB + competitor C4^ATTO655 peptide 2 µM.
Setting [3] is: CP^F 50 nM + TmrAB + competitor R9LQK peptide 200 µM.
The mark [4] stands for this setting: listed as -: CP^F 50 nM before addition of TmrAB.
Where [5] appears, read: listed as TmrAB: CP^F 50 nM + TmrAB 0.5-0.7 µM, no competitor.

With `CC[C@H](C)[C@@H]1NC(=O)[C@H]([C@@H](C)O)NC(=O)[C@H](CC(C)C)NC(=O)[C@H](Cc2c[nH]c3ccccc23)NC(=O)[C@H](Cc2ccccc2)NC(=O)[C@H](CC(N)=O)NC(=O)[C@H](CCC(=O)O)NC(=O)[C@H](CC(C)C)NC(=O)[C@H](CS)NC(=O)[C@H](Cc2c[nH]cn2)NC(=O)[C@H](CO)NC(=O)[C@@H](Cc2ccc(O)cc2)NC(=O)CSC[C@@H](C(=O)NCC(=O)N[C@@H](CO)C(=O)NCCC(=O)NCCC(=O)N[C@@H](CCCNC(=N)N)C(=O)N[C@@H](CCCCNC(=O)c2ccc3c(c2)C(=O)OC32c3ccc(O)cc3Oc3cc(O)ccc32)C(N)=O)NC(=O)[C@H](CC(C)C)NC1=O` [CP6] ({CH2CO}-[dY]SHCLENFWLTILCGS[βAla][βAla]RK(5FAM)-NH2; thioether N-14), the “Bound CP^F, fluorescence anisotropy” value worked out at 0.109 in the experiment with TmrAB (setting [2]), 0.101 with TmrAB (setting [3]), 0.022 in the experiment on TmrAB (setting [4]) and 0.111 in the experiment with TmrAB (setting [5]). For the same compound, the “Bound CP^F” value in experiment [1] (amount equal to 0.5000 µM) is given as -6.19%.
For `CC(C)C[C@@H]1NC(=O)[C@H](Cc2ccccc2)NC(=O)CNC(=O)[C@H](CO)NC(=O)[C@H](Cc2ccccc2)NC(=O)[C@H](CC(=O)O)NC(=O)[C@@H]2CCCN2C(=O)[C@H]([C@@H](C)O)NC(=O)[C@@H](Cc2ccc(O)cc2)NC(=O)CSC[C@@H](C(=O)NCC(=O)N[C@@H](CO)C(=O)NCCC(=O)NCCC(=O)N[C@@H](CCCNC(=N)N)C(=O)N[C@@H](CCCCNC(=O)c2ccc3c(c2)C(=O)OC32c3ccc(O)cc3Oc3cc(O)ccc32)C(N)=O)NC(=O)[C@H](C)NC(=O)[C@H](CC(N)=O)NC(=O)[C@H](CCCNC(=N)N)NC(=O)[C@H](CC(C)C)NC(=O)[C@H](Cc2ccccc2)NC(=O)[C@H](C)NC1=O` [CP12] ({CH2CO}-[dY]TPDFSGFLAFLRNACGS[βAla][βAla]RK(5FAM)-NH2; thioether N-16), in that order: 0.160, 0.155, 0.025, 0.168 and -0.19%.
For `CC[C@H](C)[C@@H]1NC(=O)[C@H](Cc2c[nH]c3ccccc23)NC(=O)[C@H](CC(N)=O)NC(=O)[C@H](C)NC(=O)[C@H](CO)NC(=O)[C@@H]2CCCN2C(=O)[C@H](CC(=O)O)NC(=O)[C@@H](Cc2ccc(O)cc2)NC(=O)CSC[C@@H](C(=O)NCC(=O)N[C@@H](CO)C(=O)NCCC(=O)NCCC(=O)N[C@@H](CCCNC(=N)N)C(=O)N[C@@H](CCCCNC(=O)c2ccc3c(c2)C(=O)OC32c3ccc(O)cc3Oc3cc(O)ccc32)C(N)=O)NC(=O)[C@H]([C@@H](C)O)NC(=O)[C@H](CC(C)C)NC(=O)[C@H](CC(C)C)NC(=O)[C@H](C(C)C)NC(=O)[C@H](CC(C)C)NC1=O` [CP13] ({CH2CO}-[dY]DPSANWILVLLTCGS[βAla][βAla]RK(5FAM)-NH2; thioether N-14; C-terminus assumed), the “Bound CP^F, fluorescence anisotropy” value in the experiment on TmrAB (setting [2]) is given as 0.122; in the experiment on TmrAB (setting [3]) it was 0.123; in the experiment with TmrAB (setting [4]) it was 0.025; in the experiment with TmrAB (setting [5]) it was 0.127. Further, the “Bound CP^F” value in experiment [1] (amount equal to 0.2500 µM) came out at 3.65%.
For `CC(C)[C@@H]1NC(=O)[C@H](Cc2ccccc2)NC(=O)[C@@H]2CCCN2C(=O)[C@H](CC(N)=O)NC(=O)[C@H](Cc2c[nH]c3ccccc23)NC(=O)[C@H](C(C)C)NC(=O)[C@H](Cc2ccc(O)cc2)NC(=O)[C@H](Cc2ccccc2)NC(=O)[C@@H](Cc2ccc(O)cc2)NC(=O)CSC[C@@H](C(=O)NCC(=O)N[C@@H](CO)C(=O)NCCC(=O)NCCC(=O)N[C@@H](CCCNC(=N)N)C(=O)N[C@@H](CCCCNC(=O)c2ccc3c(c2)C(=O)OC32c3ccc(O)cc3Oc3cc(O)ccc32)C(N)=O)NC(=O)[C@H](CCCCN)NC(=O)[C@H](Cc2ccccc2)NC1=O` [CP14] ({CH2CO}-[dY]FYVWNPFVFKCGS[βAla][βAla]RK(5FAM)-NH2; thioether N-12; C-terminus assumed), in that order: 0.143, 0.140, 0.027, 0.141 and -5.24%.

Values taken from publication PMC8116058, “De novo macrocyclic peptides dissect energy coupling of a heterodimeric ABC transporter by multimode allosteric inhibition” (eLife, 2021).
